“Also recorded” adds a separate entry of the source.
How the values were obtained:
[1] = test system: more than 80 targets including GPCRs, cell-surface monoamine transporters, and ion channels including HERG; assay: Multi-target activity screen (Cerep screen), whole panel; type: binding; details: receptors
human VMAT1 transporter = target: T1, human VMAT1 transporter (Homo sapiens, UniProt P54219); assay: Uptake in cells expressing VMAT1; type: cell-based; details: test compounds at concentrations up to 10 μM
T1 construct: expressed in transfected cells
T1 sequence (P54219 1-525): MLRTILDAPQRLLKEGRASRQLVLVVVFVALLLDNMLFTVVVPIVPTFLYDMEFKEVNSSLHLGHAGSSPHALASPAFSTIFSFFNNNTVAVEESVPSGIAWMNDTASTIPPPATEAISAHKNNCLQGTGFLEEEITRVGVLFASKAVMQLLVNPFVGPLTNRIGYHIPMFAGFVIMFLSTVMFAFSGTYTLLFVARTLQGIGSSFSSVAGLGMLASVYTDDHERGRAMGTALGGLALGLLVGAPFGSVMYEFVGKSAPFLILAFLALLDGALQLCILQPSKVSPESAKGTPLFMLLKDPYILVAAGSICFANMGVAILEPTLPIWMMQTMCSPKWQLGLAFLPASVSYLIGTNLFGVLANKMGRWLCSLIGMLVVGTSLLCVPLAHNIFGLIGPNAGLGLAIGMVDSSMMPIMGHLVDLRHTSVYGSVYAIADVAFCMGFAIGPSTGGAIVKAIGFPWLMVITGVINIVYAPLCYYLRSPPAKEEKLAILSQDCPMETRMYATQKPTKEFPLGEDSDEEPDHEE

[2] = Plasma concentrations of circulating metabolites of VBZ; type: in vivo; details: metabolites formed from VBZ
[3] = test system: ptosis (adrenergic activation); assay: Ptosis, in vivo surrogate measure
[4] = test system: prolactin release (D2 dopamine receptor); assay: Serum prolactin, in vivo surrogate measure
rat and human VMAT2 = assay: VMAT2 [3H]-DHTBZ binding, summary statements over rat and human tissues; details: rat striatum and human platelet homogenates
Protocol: The affinity of each compound was measured by inhibition of [^3H]-DHTBZ binding to rat forebrain membranes. […] The affinity of each compound was measured by inhibition of [^3H]-DHTBZ binding to either human platelets or rat striatal membranes.

[5] = test system: dopamine, serotonin and adrenergic receptor subtypes; assay: Detailed radioligand binding assays, monoamine receptors; details: radioligand binding assays and broad panel screen

Row | SMILES | affinity for more than 80 binding sites, in words [1] | inhibition of uptake through VMAT1, in words (human VMAT1 transporter) | induction of ptosis, in words [3] | increase in serum prolactin levels, in words [4] | other results
1 | COc1cc2c(cc1OC)[C@H]1C[C@@H](OC(=O)[C@@H](N)C(C)(C)O)[C@H](CC(C)C)CN1CC2 [NBI-136110] | little to no affinity | no significant inhibitory activity; also recorded: no significant effect | – | – | decline of plasma concentrations (half-lives), in words [2]: half-lives similar to VBZ
2 | COc1cc2c(cc1OC)[C@H]1C[C@@H](O)[C@H](CC(C)C)CN1CC2 [R,R,R-DHTBZ, (2R,3R,11bR)-3-isobutyl-9,10-dimethoxy-1,3,4,6,7,11b-hexahydro-2H-pyrido[2,1-a]isoquinolin-2-ol] | little to no affinity | no significant inhibitory activity; also recorded: no significant effect | induced ptosis in an equivalent manner | induced a similar increase in serum prolactin levels as TBZ | decline of plasma concentrations (half-lives), in words [2]: half-lives similar to VBZ; VMAT2 inhibition, in words (rat and human VMAT2): most potent inhibitor of VMAT2
3 | COc1cc2c(cc1OC)[C@@H]1C[C@@H](O)[C@@H](CC(C)C)CN1CC2 [R,S,S-DHTBZ, reference compound] | – | – | – | – | interaction with D1 and D2 receptors, in words [5]: interact with D1 and D2 receptors
4 | COc1cc2c(cc1OC)[C@@H]1C[C@H](O)[C@@H](CC(C)C)CN1CC2 [S,S,S-DHTBZ, reference compound] | – | – | – | – | interaction with D1 and D2 receptors, in words [5]: interact with D1 and D2 receptors
5 | COc1cc2c(cc1OC)C1CC(=O)C(CC(C)C)CN1CC2 (stereo not shown) [TBZ, reference compound] | – | no significant inhibitory activity; also recorded: no significant effect | induced ptosis in an equivalent manner | increase in serum prolactin levels | –
6 | COc1cc2c(cc1OC)[C@H]1C[C@@H](OC(=O)[C@@H](N)C(C)C)[C@H](CC(C)C)CN1CC2 [Valbenazine, (S)-2-amino-3-methyl-butyric acid (2R,3R,11bR)-3-isobutyl-9,10-dimethoxy-1,3,4,6,7,11b-hexahydro-2H-pyrido[2,1-a]isoquinolin-2-yl ester] | little to no affinity | – | induced ptosis in an equivalent manner | to a lesser extent | inhibition of uptake through VMAT1, in words (human VMAT1 transporter; listed as VBZ): no significant inhibitory activity; also recorded: no significant effect
7 | COC(=O)[C@H]1[C@H]2C[C@@H]3c4[nH]c5cc(OC)ccc5c4CCN3C[C@H]2C[C@@H](OC(=O)c2cc(OC)c(OC)c(OC)c2)[C@@H]1OC [reserpine, reference compound] | – | substantially inhibited uptake through VMAT1 | – | – | –

From patent publication US10857137B2, “Methods for the administration of certain VMAT2 inhibitors” (Neurocrine Biosciences, Inc., priority 2017, dated 2020)
